What was measured:
mice = conditions: reported, Non-Patent Literature 5; cited from earlier work
birds = conditions: reported, Non-Patent Literature 5; cited from earlier work
C57/BL6 male mice = experiment: Freezing test: innate fear (freezing) behavior of mice exposed to odor gas; format: in vivo, mouse; conditions: for freezing behavior-inducing activity (Freezing time): 10 ppm gas, 20 min observation, n = 6
Excerpt: A 10 ppm gas was generated for 9 kinds of available odor molecules from those reported to have a repellent effect on birds by using a gas permeator (manufactured by GASTEC, PD-1B-2). Holes (4.5 cm and 12 cm high) were respectively drilled on opposite sides of a sealed test cage (17×17×18.5 cm), a tube for discharging the gas generated by the permeator was connected to the lower hole, the gas was introduced, and the higher hole allowed the air in the test cage to be released. After the air in the test cage was completely replaced by the odor gas, C57/BL6 male mice aged about 2 months to 6 months were put into the test cage (one mouse per cage), and the freezing behavior was analyzed by a freezing behavior automatic analyzer (manufactured by Actimetrics, Freeze Frame2) for 20 min. The time during which the mouse was motionless for 2 seconds or longer was measured as a freezing behavior, and the duration of freezing behavior within 20 minutes of observation time (Freezing time) was shown in %. Each experiment was performed with n = 6.
A constant concentration of the gas of the following various compounds was generated by a gas permeator (manufactured by GASTEC, PD-1B-2). When the concentration is not particularly indicated, an odor gas was generated at a concentration of 10 ppm. Holes (4.5 cm and 12 cm high) were respectively drilled on opposite sides of a sealed test cage (17×17×18.5 cm), a tube for discharging the gas generated by the permeator was connected to the lower hole, the gas was introduced, and the higher hole allowed the air in the test cage to be released. After the air in the test cage was completely replaced by the odor gas, C57/BL6 male mice aged about 2 months to 6 months were put into the test cage (one mouse per cage), and the freezing behavior was analyzed by a freezing behavior automatic analyzer (manufactured by Actimetrics, Freeze Frame2) for 20 min. The time during which the mouse was motionless for 2 seconds or longer was measured as a freezing behavior, and the duration of freezing behavior within 20 minutes of observation time (Freezing time) was shown in %. Each experiment was performed with n = 6. […]
A 10 ppm gas of thiophene and 2-acetylthiophene was generated using a gas permeator (manufactured by GASTEC, PD-1B-2). […] After the air in the test cage was completely replaced by the odor gas, C57/BL6 male mice aged about 2 months to 6 months were put into the test cage (one mouse per cage), and the freezing behavior was analyzed by a freezing behavior automatic analyzer (manufactured by Actimetrics, Freeze Frame2) for 20 min. The time during which the mouse was motionless for 2 seconds or longer was measured as a freezing behavior, and the duration of freezing behavior within 20 minutes of observation time (Freezing time) was shown in %. […]

SMILES | activity to induce freezing behavior in mice (mice) | repellent activity in birds (birds) | freezing behavior-inducing activity (Freezing time) (C57/BL6 male mice; Example 1, FIG. 1) | freezing behavior-inducing activity (Freezing time) (C57/BL6 male mice; Example 3, FIG. 3) | significant difference from no odor, student's t-test (C57/BL6 male mice; Example 3, freezing time versus no odor)
Cc1csc(C)n1 [2,4-dimethyl-thiazole] | has an activity to induce freezing behavior | does not show repellent activity | – | – | –
CC(=O)c1cccs1 [2-acetylthiophene] | – | – | induced a freezing behavior | very strong freezing behavior | –
c1ccsc1 [thiophene] | – | – | – | very low | no significant difference

Reference: patent US20230363389A1, “MAMMAL REPELLENT” (SCENT SCIENCE INTERNATIONAL INC., priority 2020, published 2023)
